Entries after “also recorded” stand apart in the source; their conditions may differ.
Assays:
[1] = system: NIH3T3 L1 cells into which only pLNCX vector was introduced; assay: Differentiation of adipocytes and oil deposition according to concentration of NADPH (Oil-Red-O); format: cell-based, mouse
Protocol: To examine the influence of IDPc on the synthesis of fatty acids, the transfectant cell lines were cultured in 10% FBS-supplemented DMEM containing insulin 5 μg/ml, 0.5 mM 3-isobutyl-1-methylxanthine (IBMX, Sigma), 1 μM dexamethasone (DEX), and penicillin-streptomycin (Gibco BRL), each 50,000 units, for two days to increase the counts of the cells to a density of approximately 3×10^4 cells/cm^2. Thereafter, the cells were further cultured for 12 days in DMEM free of IBMX and DEX while the medium was refreshed every other day. Cell culturing was carried out in a CO2 incubator at 37° C. under a wet, 5% CO2 atmosphere.
After culturing, the cells were treated with Oil-Red-O, which specifically dyes oil, to observe oil deposits formed in adipocytes. In this connection, the medium was depleted, after which 10 ml of a cacodylate buffer (90 mM cacodylate, pH 7.2, 2% formaldehyde, 2.5% glutaraldehyde, 0.025% CaCl2, 5% sucrose) was added to the cells, which was then allowed to stand at 4° C. for 1 hour. After removal of the buffer, 5 ml of Oil-Red-O in 40% isopropanol was added to the cells and slowly mixed over 1 hour, followed by washing with 40% isopropanol.
The effect of NADPH, a metabolic product of IDPc, on the deposition of cellular oils was quantitatively measured with Oil-Red-O, a dye specific for lipids. […]

isocitrate dehydrogenase = isocitrate dehydrogenase (Mus musculus, UniProt O88844); assay: Screening of inhibitors against isocitrate dehydrogenase (spectrophotometry, absorbance at 340 nm); format: biochemical; conditions: change in absorbance at 340 nm with time, 25° C.
Protocol: In this connection, spectrophotometry is very useful. In more detail, first, a spectrophotometer is adjusted to zero absorbance at 340 nm using a mixture of a ten-fold concentrated reaction buffer plus 3rd distilled water. After a crystal cuvette containing the 10× buffer, a test sample and 3rd distilled water is installed in the spectrophotometer, isocitrate dehydrogenase is added to the cuvette and a measurement is made of the change in absorbance at 340 nm with time.
Because an absorbance decreases faster in the cuvette containing a greater concentration of a sample inhibitory against the activity of the enzyme, the analysis of the spectrophotometric data enables the screening of inhibitors of isocitrate dehydrogenase.
An assay buffer (50 mM MOPS, pH 7.2, 35.5 mM triethanolamine, pH 7.2, 2 mM NADP^+, 2 mM MgCl2, 5 mM isocitrate, rotenone 1 mg/ml) and test samples were all prepared at 10× concentration. Enzymatic reactions necessary for the selection were conducted in a final volume of 1 ml at 25° C. in crystal cuvette. For use, the concentrated test samples were diluted with 3rd distilled water. The assay buffer, enzyme inhibitors, and isocitrate dehydrogenase, which all at 10× concentration, were maintained at low temperature, i.e., in ice.
A spectrophotometer was first subjected to null adjustment at 340 nm using the 10× assay buffer and 3rd distilled water. 100 μl of the sample was added, along with 100 μl of the 10× assay buffer, in a crystal cuvette, and mixed with 600 μl of 3rd distilled water. After the completion of the null adjustment, the sample cuvette was installed in the spectrophotometer, followed by adding 200 μl of isocitrate dehydrogenase and mixing the solution with the aid of a pipette. Changes in absorbance at 340 nm were monitored with time. In principle, an absorbance decreases faster in the cuvette containing a greater concentration of a sample inhibitory against the activity of the enzyme. Based on this principle, the quantification of the spectrophotometric data enabled the screening of inhibitors of isocitrate dehydrogenase.

rats = assay: Restrictive effect of isocitrate dehydrogenase inhibitor on obesity in rats; format: in vivo, rat
Protocol: 26 weeks after birth, rats were compared for cellular lipid deposition when they were treated with no isocitrate dehydrogenase inhibitors and methyl isocitric acid.
A container suitable for receiving a rat was placed on a scale which was then subjected to null adjustment, after which a rat was carefully put in the container.
The livers and adipose tissues taken from inhibitor-administered rats and non-administered rats were homogenized in a buffer (0.32 M sucrose, 0.01 M Tris-Cl pH 7.4) and centrifuged at 3,000×g for 10 min. Again, the supernatant was centrifuged at 10,000×g for 15 min. A pure cytosolic fraction was obtained as the supernatant. The enzyme activity of IDPc was determined by measuring the change in the production amount of NADPH in a buffer (50 mM MOPS, pH 7.2, 35.5 mM triethanolamine, pH 7.2, 2 mM NADP^+, 2 mM MgCl2, 5 mM isocitrate, and rotenone 1 μg/ml) maintained at 25° C. Using a spectrophotometer, absorbance at 340 nm was measured for 2 min to quantify the amount of NADPH produced by the IDPc contained in the cytoplasmic protein, thereby determining the enzyme activity of IDPc. For the quantification of the enzyme, the amount which produced 1 μM of NADPH in 1 min was defined as 1 unit. Protein quantification was performed according to the Bradford assay.
In order to measure the blood triglyceride levels and total cholesterol, assay kits manufactured by Asan Pharmaceutics. Co. Ltd. were used. After being treated with an anti-coagulant, blood taken from the inhibitor-administered rats and non-administered rats was centrifuged to obtain sera. 10 μl of each of the sera was mixed with 1.5 ml of a triglyceride-assay kit [a solution of lipoproteinase 10800 U, glycerol kinase 5.4 U, peroxidase 135000 U, and L-α-glycerophosphate oxidase 160 U in 72 ml of N,N-bis(2-hydroxyethyl)-2-aminomethanesulfonic acid buffer] or 1.5 ml of a cholesterol enzyme-assay kit (a mixture of an enzyme solution (cholesterol esterase 20.5 KU/l, cholesterol oxidase 10.7 KU/l, and sodium hydroxide 1.81 g/l) and a buffer (potassium monophosphate 13.6 g/l, phenol 1.88 g/l) in the proportions of 1:1) and incubated at 37° C. for 5 min for reaction. In a microplate reader, a measurement was done by reading absorbance at 500 nm for cholesterol and at 540 nm for triglyceride, so as to quantify blood levels of triglyceride and total cholesterol. In connection to the quantification of triglyceride and cholesterol, there was utilized a standard curve which was obtained by applying the above procedure to various known concentrations of a standard solution.
A predetermined amount of the liver was taken from both the inhibitor-administered mice and non-administered mice and homogenized in 1 ml of CIAA (chloroform:isoamyl alcohol=2:1 v/v). 100 μl of the homogenate was dissolved in 200 μl of pure ethyl alcohol and mixed with 500 μl of each of the assay kits for triglyceride and cholesterol, manufactured by Asan Pharmaceutics, Co. Ltd., containing 0.5% Triton X-100 and 3 mM sodium cholate, followed by incubation at 37° C. for 10 min. After being added with 800 μl of water, each sample was measured for liver triglyceride and total cholesterol levels with the aid of a microplate reader in the same manner as in above. Likewise, the above procedure was applied to various known concentrations of a standard solution to acquire a standard curve which was used to quantify triglyceride and cholesterol levels in the liver.

3T3-L1 cells = assay: Prevention of oil deposition in 3T3-L1 by isocitrate dehydrogenase inhibitor (Oil-Red-O); format: cell-based, mouse; conditions: cells treated with inhibitor vs no isocitrate inhibitors, FIG. 9
Text: After being treated with the isocitrate dehydrogenase inhibitors methyl isocitric acid and oxalomalic acid, 3T3-L1 cells, which remain undifferentiated, were examined for their differentiation to adipocytes. Effects of the isocitrate dehydrogenase inhibitors on fatty acid synthesis could be identified through the visualization using Oil-Red-O, a oil-specific dye.

Sequence of isocitrate dehydrogenase (O88844 whole entry): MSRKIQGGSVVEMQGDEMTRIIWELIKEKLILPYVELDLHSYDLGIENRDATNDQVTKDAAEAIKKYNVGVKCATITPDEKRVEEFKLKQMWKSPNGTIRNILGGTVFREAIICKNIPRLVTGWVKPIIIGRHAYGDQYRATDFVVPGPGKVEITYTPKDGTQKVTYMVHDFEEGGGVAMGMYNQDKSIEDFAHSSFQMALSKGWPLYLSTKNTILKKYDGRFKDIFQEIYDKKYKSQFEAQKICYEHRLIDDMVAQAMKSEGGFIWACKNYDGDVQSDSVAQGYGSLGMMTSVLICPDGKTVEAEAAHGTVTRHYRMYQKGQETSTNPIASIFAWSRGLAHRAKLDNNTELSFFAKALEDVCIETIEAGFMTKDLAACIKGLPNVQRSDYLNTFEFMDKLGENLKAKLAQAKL

NC(=O)C1=CN([C@@H]2O[C@H](COP(=O)(O)OP(=O)(O)OC[C@H]3O[C@@H](n4cnc5c(N)ncnc54)[C@H](OP(=O)(O)O)[C@@H]3O)[C@@H](O)[C@H]2O)C=CC1 [NADPH] was tested, and the “oil deposits formed within cells (Oil-Red-O)” value ([1]; NADPH added at 0 μM, 25 μM and 50 μM to the media during differentiation into adipocytes) was “accumulated greater amounts of oils; also recorded: larger intracellular lipid deposits” and the differentiation of adipocytes ([1]; differentiated in the presence of NADPH, increasing concentration) was “direct positive influence on the differentiation of adipocytes; also recorded: higher differentiation rates”.

In the case of CC(NC(C)(C)C)C(=O)c1cccc(Cl)c1 (stereo not shown) [bupropion], the “inhibitory activity against isocitrate dehydrogenase” value (“inhibitory activity” below) (isocitrate dehydrogenase) is reported as “only a little inhibitory activity; also recorded: a little inhibitory effect”.

CC(O)(C(=O)O)C(CC(=O)O)C(=O)O (stereo not shown) [methyl isocitric acid] was tested, and the “inhibitory activity” value (isocitrate dehydrogenase) was “strong inhibitory activity; also recorded: definite inhibitory activity”, the “arteriosclerosis index, lower” value (rats) was 10 and the “body weight, inhibitor-administered vs non-administered rats” value (rats; 10-weeks old) was “No significant difference”. The “weight of epididymal fat pad, lower compared to non-administered rats” value (rats; FIG. 10a) was “about 12%”, the “weight of the liver, inhibitor-administered vs normal rats” value (rats; FIG. 10a) was “no difference” and the “blood level of total cholesterol, lower compared to non-administered rats” value (rats; FIG. 10b) was 11%. For the same compound, the “blood level of triglyceride, lower compared to non-administered rats” value (rats; FIG. 10b) was 20%, the “high-density lipoproteins (HDL) level, higher compared to non-administered rats” value (rats; blood, FIG. 10c) was 11% and the “cellular oil deposits dyed with Oil-Red-O” value (3T3-L1 cells) was “reducing cellular oil deposits”.

NC(=O)c1cccnc1 [nicotine amide] was tested, and the “inhibitory activity” value (isocitrate dehydrogenase) was “No inhibitory activity”.

O=C(O)c1cccnc1 [nicotinic acid] was tested, and the “inhibitory activity” value (isocitrate dehydrogenase) was “No inhibitory activity”.

For O=C(O)C(=O)C(C(=O)O)C(O)C(=O)O (stereo not shown) [oxalomalic acid], the “inhibitory activity” value (isocitrate dehydrogenase) was “strong inhibitory activity; also recorded: definite inhibitory activity” and the “cellular oil deposits dyed with Oil-Red-O” value (3T3-L1 cells) was “reducing cellular oil deposits”.
